Measured values taken from patent US7371729B2, “Boronic acid salts useful in parenteral formulations” (Trigen Limited, priority 2002, dated 2008).
Where a name gives a salt, the structure may show the parent alone. Read-outs that look alike come from different tables or passages of the source.

What was measured:
[1] = Rat tail bleeding model; assay type: in vivo
Description: Bleeding times were determined in a rat tail bleeding model following intravenous administration of heparin and TRI 50b. The doses employed were chosen on the basis of their efficacy in the rat Wessler and dynamic models and were as follows:
Rats were anaesthetised with sodium pentabarbitone at 60 mg/kg (2.0 ml/kg of 30 mg/ml solution by ip. injection). Supplemental anaesthetic was given ip. as required.
A jugular vein was cannulated for the administration of test compound. The trachea was also cannulated with a suitable cannula and the animals allowed to breathe ‘room air’ spontaneously.
These were given in the appropriate vehicle at 1.0 ml/kg intravenously. Heparin was administered in saline, whilst TRI 50b was dissolved in ethanol, and then the resultant solution added to water for injection (1 part ethanol to 5 parts water).
Two minutes following compound administration the distal 2 mm of the animal's tail was sectioned with a new scalpel blade and the tail immersed in warm saline (37° C.) contained in a standard ‘universal’ container, so that the blood stream was clearly visible. The bleeding time recording was started immediately following transection until the cessation of blood flow from the tip of the tail.

[2] = tested on: washed platelets; experiment: Aggregation of washed platelets; assay type: cell-based
[3] = molecular target: human α-thrombin (Homo sapiens, UniProt P00734); settings: reported by J. Deadman et al, J. Med. Chem. 1995; cited from earlier work
[4] = tested on: platelet rich thrombus; experiment: Rabbit extracorporeal shunt model; assay type: in vivo
From the text: The technique describes an animal model in which a platelet rich thrombus is produced. The activity of TRI 50b and heparin are compared.
The carotid artery and jugular vein of anaesthetised rabbits were used to create an extracorporeal circuit containing a suspended foreign surface (silk thread). Thrombus deposition is initiated by creation of high sheer stress turbulent arterial blood flow, platelet activation, followed by coagulation in the presence of thrombogenic surfaces. Histopathological studies have shown that the thrombus is platelet rich.
NZW rabbits (males 2.5-3.5 kg) were used. The animals were allowed food and water up to the induction of anaesthesia.
Animals were premedicated with […] (Hypnorm) 0.15 ml total by intramuscular injection. General anaesthesia was induced with methohexitone (10 mg/ml) to effect, followed by endotracheal intubation. Anaesthesia was maintained with isoflurane (1-2.0%) carried in oxygen/nitrous oxide.
The animals were placed in dorsal recumbency and the ventral cervical region prepared for surgery. The left carotid artery and right jugular vein were exposed. The artery was cannulated with a large Portex® catheter (yellow gauge), cut to a suitable length. The vein was cannulated with a Silastic® catheter. The shunt comprised of a 5 cm length of ‘auto analyser’ line (purple/white gauge). Joins to the shunt on the arterial side were made with intermediate size Silastic® tubing. The shunt was filled with saline before exposure to the circulation. The right femoral artery was cannulated for the measurement of blood pressure.
The central section of the shunt contained a thread 3 centimetres in length. This consisted of 000 gauge Gutterman sewing silk so as to give four strands with a single knot at the end. (The knot section was outside the shunt).
Blood flow velocity was determined by use of ‘Doppler’ probes (Crystal Biotech). A silastic probe was positioned over the carotid artery at the point of insertion of the arterial catheter. Flow was recorded on a chart recorder using heat sensitive paper.

[5] = tested on: platelet procoagulant activity; experiment: Inhibition of platelet procoagulant activity (washed platelets, prothrombin activation); assay type: cell-based; settings: agonist Thrombin (1.15 nM)
From the text: Platelet pro-coagulant activity may be observed as the increase, in rate of activation of prothrombin by factor Xa in the presence of factor Va upon the addition of platelets pretreated with thrombin, caused by thrombin alone, collagen alone or a mixture of thrombin and collagen. This property is due to an increase in anionic phospholipid on the surface of the platelet with concomitant release of microvesicle from the surface. This is an essential physiological reaction and people whose platelets have reduced ability to generate procoagulant activity (Scott syndrome) show an increased tendency for bleeding.
Washed platelets were treated with either 1.15 nM thrombin, 23 μg/ml collagen or a mixture of both at the same concentration at 37° C. TRI 50b was added either for 1 minute prior to the addition of activator or immediately after the incubation with activator. Platelet procoagulant activity was determined as described previously (Goodwin C A et al, Biochem J. 1995 8, 308: 15-21).

[6] = i.v. pharmacokinetics in rats; assay type: in vivo; settings: plasma, rat, 1.0 mg/kg iv; for half-life: read-out: Elimination half life; for MRT: read-out: Mean Residence Time (converted)
Description: Rats, body weight circa 250-300 g were used.
Both compounds were given at a dose of 1.0 mg/kg iv.
This was dosed at 1.33 ml/kg (equivalent to 30 mg/kg).

[7] = Hydrolysis of TRI 50b in acid conditions (HPLC assay); assay type: physicochemical; settings: for example of an HPLC assay
From the text: It has been discovered that TRI 50b tends to hydrolyse.

[8] = molecular target: T1, Thrombin (Homo sapiens, UniProt P00734); experiment: Thrombin amidolytic assay (Vmax, S2238); assay type: biochemical; settings: FIG. 1; TRI 50b as external control
T1 construct: Thrombin obtained from HTI, via Cambridge Bioscience; purchased HTI, via Cambridge Bioscience
Description: Chromogenic substrate S2238 dissolved to 4 mM (25 mg+10 mI) in water. Diluted to 50 μM with assay buffer for use in assay at 5 μM. (S2238 is H-D-Phe-Pip-Arg-pNA).
Thrombin obtained from HTI, via Cambridge Bioscience, and aliquoted at 1 mg/ml with assay buffer. Dilute to 100 ng/ml with assay buffer and then a further 1 in 3 for use in the assay.

[9] = Stability: HPLC-PDA assay before and after drying over phosphorus pentoxide for 1 week; assay type: physicochemical
Description: An assay of TRI 50c and its sodium and lysine salts before and after drying.
For sample analysis, 5 mg of dried and non-dried material was weighed in a 5 mL volumetric flask and dissolved in 1 mL acetonitrile and filled up with demineralised water to 5 mL.
The quantitative evaluation was performed using an HPLC-PDA method.

[10] = Tolerability in beagle dogs after i.v. dose; assay type: in vivo; settings: dog, 1.0 mg/kg i.v., total duration of the study
Description: Blood samples were taken into 3.8% tri-sodium citrate (1+8) at pre dose, 2, 5, 10, 20, 30, minutes post dose and then at 1, 2, 3, 4, 6, 8, 12 and 24 hours post dose. Plasma was prepared by centrifugation and frozen at minus 20° C. pending analysis.

With COCCC[C@H](NC(=O)[C@@H]1CCCN1C(=O)[C@@H](Cc1ccccc1)NC(=O)OCc1ccccc1)B1OC(C)(C)C(C)(C)O1 [TRI 50b, Cbz-(R)-Phe-Pro-BoroMpg-OPinacol] the “Bleeding time min (±SEM)” value ([1]; 5 mg/kg iv) was 11.3 ± 1.2 min, the “Bleeding time min (±SEM)” value ([1]; 10 mg/kg iv) was 30.4 ± 5.2 min and the “effect on ADP, collagen or epinephrine induced aggregation of washed platelets” value [2] was “does not have an effect”. For the same compound, the Ki [3] was 7 nM, the “ANTITHROMBOTIC ACTIVITY” value ([4]; 3.0 mg/kg iv) was “Active” and the “bleeding in shunt model” value ([4]; 3 mg/kg to 10 mg/kg iv) was “without bleeding”. For the same compound, the “ANTITHROMBOTIC ACTIVITY” value ([4]; 10 mg/kg iv) was “Active”, the IC50 ([5]; TRI 50b added 1 minute prior to activator, read-out: IC50 plus pre-incubation) was 8 nM and the IC50 ([5]; TRI 50b added after incubation with activator, read-out: IC50 without incubation) was 3000 nM. It also gave a clearance [6] of 10 mL/min/kg, a half-life [6] of 35 min and an MRT [6] of 46 min. The “hydrolysis to the acid form, half life” value [7] was “short half life”.
With COCCC[C@H](NC(=O)[C@@H]1CCCN1C(=O)[C@@H](Cc1ccccc1)NC(=O)OCc1ccccc1)B([O-])O.COCCC[C@H](NC(=O)[C@@H]1CCCN1C(=O)[C@@H](Cc1ccccc1)NC(=O)OCc1ccccc1)B([O-])O.[Mg+2] [magnesium salt of TRI 50c] the “activity in thrombin amidolytic assay (Vmax)” value [8] was “same activity as TRI 50b”.
In the case of COCCC[C@H](NC(=O)[C@@H]1CCCN1C(=O)[C@@H](Cc1ccccc1)NC(=O)OCc1ccccc1)B(O)O [TRI 50c sodium salt, Cbz-(R)-Phe-(S)-Pro-(R)-Mpg-B(OH)2 monosodium salt], the “stability: effect of drying on purity” value ([9]; in words) is reported as “not significantly reduced” and the tolerability [10] is reported as “tolerated well with no adverse events”.
In the case of COCCC[C@H](NC(=O)[C@@H]1CCCN1C(=O)[C@@H](Cc1ccccc1)NC(=O)OCc1ccccc1)B(O)O [TRI 50c, Cbz-(R)-Phe-(S)-Pro-(R)-boroMpg-OH], the “Purity (% area)” value ([9]; non-dried) is reported as 85.54 % area, the Amount ([9]; non-dried, 5 mg in 5 mL) is reported as 947.3 µg/mL and the clearance [6] is reported as 11.3 mL/min/kg. For the same compound, the half-life [6] was 36.6 min and the MRT [6] was 45 min.
